Consider eight compounds from PubChem BioAssay (NCI).

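Protocol summary: plate cells (96-well), add compound at 5 concentrations, incubate 48 h, interpolate endpoints linearly. GI50 is the concentration that inhibits growth by half. The concentration for full growth arrest is given as TGI.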

Test systems include OVCAR-8 ovarian; SF-295 CNS; KM12 colon; UACC-62 melanoma; T-47D breast; SF-268 CNS; A549 NSCLC; MDA-MB-231 breast; OVCAR-4 ovarian; SNB-75 CNS; OVCAR-5 ovarian; RPMI-8226 leukemia; SF-539 CNS; SNB-19 CNS; SW-620 colon; NCI-H522 lung; EKVX NSCLC; MDA-N.
Test in all cases: inhibition of tumour cell growth, NCI panel, 48 h

Regarding `COC(=O)c1c2n(c3ccccc13)C[C@H]1OC(C)(C)O[C@@H]21`, the TGI with OVCAR-8 ovarian, in the assay on SF-295 CNS, with KM12 colon, in the assay with UACC-62 melanoma, in the assay with T-47D breast and in the assay on SF-268 CNS was above 100 µM each time. Also, the TGI in the assay on A549 NSCLC, in the assay with MDA-MB-231 breast, with OVCAR-4 ovarian, with SNB-75 CNS, in the assay on OVCAR-5 ovarian and with RPMI-8226 leukemia was above 100 µM in each case. Besides, the TGI in the assay with SF-539 CNS, in the assay with SNB-19 CNS, in the assay on SW-620 colon, in the assay on NCI-H522 lung and with EKVX NSCLC was above 100 µM each time.
For `CC1CCCc2c(C#N)c(N)nc(-c3ccc(Cl)cc3)c21` (stereo unspecified), the TGI is above 100 µM in the assay with OVCAR-8 ovarian; 49.2 µM in the assay on SF-295 CNS; above 100 µM in the assay on KM12 colon; 38.2 µM with UACC-62 melanoma; 93.9 µM in the assay with MDA-N; 74.5 µM with T-47D breast. The TGI in the assay on SF-268 CNS was above 100 µM; in the assay with MDA-MB-231 breast, 81.8 µM; in the assay on SNB-75 CNS, 81.6 µM; in the assay with OVCAR-5 ovarian it was 63.3 µM; with RPMI-8226 leukemia, 39.2 µM; with SF-539 CNS, 33 µM. The TGI with SNB-19 CNS, in the assay on SW-620 colon and with EKVX NSCLC was above 100 µM in each case.
`Cc1cc(=O)[nH]c(NN2C(Cl)C(=O)C2c2ccc(Cl)cc2)n1` (stereo unspecified): the TGI in the assay with OVCAR-8 ovarian is 56.5 µM; with SF-295 CNS, above 100 µM; with KM12 colon, 16.1 µM; in the assay on UACC-62 melanoma, 39.9 µM; with MDA-N, 72.6 µM; in the assay on T-47D breast, 43.4 µM. The TGI is above 66.2 µM with SF-268 CNS; above 64.8 µM in the assay on A549 NSCLC; 72 µM in the assay on MDA-MB-231 breast; above 64.7 µM with OVCAR-4 ovarian; 42.5 µM in the assay on SNB-75 CNS; above 60.4 µM with OVCAR-5 ovarian. The TGI with RPMI-8226 leukemia was 33.1 µM; in the assay with SF-539 CNS it was 33.3 µM; in the assay with SNB-19 CNS, 45.2 µM; with SW-620 colon, above 71.7 µM; in the assay on EKVX NSCLC, 35 µM.
With `CCOC(=O)CSc1nc(-c2ccccc2)c(C#N)c(=O)[nH]1`, the TGI in the assay with OVCAR-8 ovarian, in the assay with SF-295 CNS, in the assay on KM12 colon, in the assay on UACC-62 melanoma, in the assay on T-47D breast and in the assay with SF-268 CNS was above 100 µM throughout. For the same compound, the TGI in the assay on A549 NSCLC, in the assay with MDA-MB-231 breast, with OVCAR-4 ovarian, in the assay with SNB-75 CNS, in the assay with OVCAR-5 ovarian and with RPMI-8226 leukemia was above 100 µM each time. The TGI in the assay with SF-539 CNS was above 100 µM; in the assay with SNB-19 CNS, above 100 µM; in the assay with SW-620 colon it was above 100 µM; in the assay with NCI-H522 lung, 47 µM; in the assay on EKVX NSCLC, above 100 µM.
In the case of `CC(=O)OCC(OC(C)=O)C(OC(C)=O)C(C=NN(C(C)=O)S(=O)(=O)c1ccc(/C=C2\NC(=O)NC2=O)cc1)OC(C)=O` (stereo unspecified), the TGI in the assay on OVCAR-8 ovarian, in the assay on SF-295 CNS, with UACC-62 melanoma, in the assay on MDA-N, in the assay on T-47D breast and in the assay on SF-268 CNS was above 100 µM each time. In addition, the TGI in the assay on A549 NSCLC, with MDA-MB-231 breast, in the assay with OVCAR-4 ovarian, with SNB-75 CNS, in the assay on OVCAR-5 ovarian and in the assay with RPMI-8226 leukemia was above 100 µM in each case. The TGI in the assay on SF-539 CNS, in the assay with SNB-19 CNS, in the assay on SW-620 colon and in the assay on EKVX NSCLC was above 100 µM each time. In the assay with RPMI-8226 leukemia, the GI50 was above 100 µM.
As for `O=c1cc(-c2cccc(Cl)c2)[nH]c2ncccc12`, the TGI with OVCAR-8 ovarian was above 100 µM; in the assay with SF-295 CNS it was 0.438 µM; with KM12 colon, above 100 µM; with UACC-62 melanoma it was above 100 µM; in the assay with MDA-N it was 0.0374 µM; in the assay with SF-268 CNS it was above 88.8 µM. Further, the TGI with A549 NSCLC is above 100 µM; in the assay with OVCAR-4 ovarian, above 100 µM; with SNB-75 CNS it was above 56.1 µM; with OVCAR-5 ovarian it was above 100 µM; with SF-539 CNS, 0.374 µM; in the assay with SNB-19 CNS it was 24.1 µM. Further, the TGI with SW-620 colon is above 100 µM; with NCI-H522 lung it was 0.914 µM; with EKVX NSCLC, above 100 µM.
As to `Cc1ccc(N2C(=O)C3c4[nH]c5ccccc5c4C4CCC(C(C)(C)C)CC4C3C2=O)cc1` (stereo unspecified), the TGI in the assay on OVCAR-8 ovarian came out at 20.9 µM; in the assay with SF-295 CNS it was 24.3 µM; in the assay on KM12 colon, 65 µM; in the assay on UACC-62 melanoma it was 31 µM; with MDA-N, 44.1 µM; in the assay on T-47D breast, 36 µM. Moreover, the TGI with SF-268 CNS was 18.9 µM; in the assay with A549 NSCLC it was 23.1 µM; with MDA-MB-231 breast it was 15.8 µM; in the assay on OVCAR-4 ovarian it was 22.7 µM; in the assay with OVCAR-5 ovarian, 39.3 µM; in the assay on RPMI-8226 leukemia, above 41.5 µM. Moreover, the TGI in the assay on SNB-19 CNS was 21.2 µM; with SW-620 colon, above 47.4 µM; in the assay with NCI-H522 lung, 26.5 µM; in the assay with EKVX NSCLC, 42.4 µM.
In the case of `Cc1n[nH]c(=O)c2cc(-c3ccccc3)[nH]c12`, the TGI in the assay with OVCAR-8 ovarian, in the assay with SF-295 CNS, in the assay with KM12 colon, with UACC-62 melanoma, in the assay on MDA-N and in the assay with T-47D breast was above 100 µM in each case. In addition, the TGI with SF-268 CNS, in the assay with A549 NSCLC, in the assay on MDA-MB-231 breast, in the assay on OVCAR-4 ovarian, in the assay with SNB-75 CNS and in the assay on OVCAR-5 ovarian was above 100 µM throughout. In addition, the TGI in the assay on RPMI-8226 leukemia, in the assay with SF-539 CNS, in the assay on SNB-19 CNS, with SW-620 colon and in the assay with EKVX NSCLC was above 100 µM throughout.
